Data on 13 molecules can be found in PubChem BioAssay (NCI).

Holding throughout (assay): inhibition of tumour cell growth, NCI panel, 48 h
Assay [1] relates to SNB-19 CNS.
Assay [2] has as its system NCI-H23 lung.
Assay [3] has as its system RPMI-8226 leukemia.
Assay [4] deals with BT-549 breast.
The test system of assay [5] is HL-60(TB) leukemia.
Assay [6] relates to ACHN renal.
Assay [7] concerns CCRF-CEM leukemia.
In assay [8] the test system is MALME-3M melanoma.
Assay [9] concerns MCF7 breast.
Assay [10] concerns COLO 205 colon.

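The compound was tested at five concentrations on cells cultured in 96-well plates, with a 48-hour exposure period. GI50 marks 50% less growth. The concentration for full growth arrest is given as TGI.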

With `CCOC(=O)C1CCC(=O)N1C(=O)c1ccccc1` (stereo not given), the TGI in assay [1], in assay [2], in assay [3], in assay [4], in [5] and in assay [6] was over 100 µM throughout. The TGI in assay [7], in [8] and in [9] was over 100 µM in each case.

Take `CCOC(=O)c1nc2cc(C(F)(F)F)ccc2nc1Nc1ccc(C(=O)NC(C(=O)OCC)C(=O)OCC)cc1`: the TGI in assay [1] is 55.3 µM; in assay [2] it was over 100 µM; in assay [10], over 100 µM; in assay [3], 65.8 µM; in assay [4] it was 51.6 µM; in assay [5] it was over 100 µM. In addition, the TGI in assay [6] was 63.1 µM; in [7] it was over 100 µM; in [8], 40.3 µM; in [9], 57.2 µM.

`COC1CC(OC2CCC3(C)C(=CCC4C3C(OC(C)=O)C(OC(=O)CC(C)C)C3(C)C(C(C)=O)CCC43O)C2)OC(C)C1OC1CC(OC)C(OC2CC(OC)C(OC3OC(C)C(OC4OC(CO)C(O)C(O)C4O)C(OC)C3O)C(C)O2)C(C)O1` (stereo not given): the TGI in assay [1], in assay [2], in assay [10], in assay [3], in assay [4] and in assay [5] was over 75 µM each time. Besides, the TGI in assay [6] is over 75 µM; in assay [7], over 7.5 µM; in assay [9] it was over 75 µM.

`S=c1cc(-c2ccc3c(c2)OCO3)s[nH]1`: the TGI in [1], in assay [2], in assay [10], in assay [3], in [4] and in assay [5] was over 100 µM each time. In addition, the TGI in [6], in assay [7], in assay [8] and in assay [9] was over 100 µM throughout.

For `COC(=O)C1(Cc2ccc3c(c2)CCC3)Cc2ccccc2C1`, the TGI in assay [1] is over 100 µM; in [2], over 100 µM; in [10], 67.8 µM; in assay [3] it was 54.6 µM; in assay [4], over 100 µM; in assay [5], 42.4 µM. Further, the TGI in [6] was over 100 µM; in assay [7], 30.8 µM; in [8], over 100 µM; in [9], over 100 µM.

For `COc1cc(/C=C/C=C2\CC/C(=C\C=C\c3ccc(O)c(OC)c3)C2=O)ccc1O`, the TGI was over 100 µM in [1]; over 100 µM in [2]; over 100 µM in assay [10]; over 100 µM in assay [3]; over 100 µM in assay [4]; over 63.8 µM in assay [5]. Also, the TGI is over 100 µM in assay [6], 8.26 µM in assay [7], over 100 µM in assay [8] and over 100 µM in [9].

On to `COc1ccc(CN2C3CC2CN(c2ccc(-c4cc(OCC(C)(C)O)cn5ncc(C#N)c45)cn2)C3)cn1`, for which the GI50 is 20.7 µM in assay [1]; 17.8 µM in assay [2]; 2.99 µM in assay [10]; over 100 µM in assay [3]; 3.34 µM in [4]; over 100 µM in assay [5]. Besides, the GI50 in assay [6] is 6.86 µM; in assay [7] it was 3.59 µM; in [8] it was over 100 µM; in [9] it was 6.06 µM. The TGI in assay [1], in [2], in [10], in [3], in assay [4] and in [5] was over 100 µM in each case. Further, the TGI in [6], in [7], in [8] and in assay [9] was over 100 µM throughout.

Turning to `COc1ccc(N(C(=O)Nc2ccc(Cl)c(Cl)c2)C2c3cccn3C(=O)N2c2ccc(Cl)c(Cl)c2)cc1` (stereo not given), the TGI in assay [1], in assay [2], in [10], in [3], in assay [4] and in assay [5] was over 100 µM throughout. The TGI in assay [6], in assay [7], in assay [8] and in [9] was over 100 µM throughout.

`CO[C@]12C[C@H](CNC(=O)c3ccc[nH]3)O[C@H]1NC(=O)N2`: the TGI in [1], in [2], in assay [10], in [3], in assay [4] and in assay [5] was over 100 µM in each case. Also, the TGI in assay [6], in assay [7], in [8] and in assay [9] was over 100 µM each time.

With `C[n+]1c(-c2ccc(/C=C/C=N\NC(=O)c3ccc(C(=O)N/N=C\C=C\c4ccc(-c5cn6ccccc6[n+]5C)cc4)cc3)cc2)cn2ccccc21`, the TGI in assay [1] is over 100 µM; in assay [2], over 100 µM; in assay [10], over 100 µM; in assay [3], over 84.6 µM; in assay [4], over 100 µM; in assay [5], over 65.7 µM. Further, the TGI in [6] was over 100 µM; in [7], over 58.2 µM; in assay [8] it was over 100 µM; in assay [9], over 100 µM.

`CC(C(=O)O)C(C)(O)C(=O)O` (stereo not given): the TGI in assay [1], in assay [2], in assay [10], in assay [3], in assay [4] and in [5] was over 100 µM throughout. Moreover, the TGI in assay [7], in [8] and in [9] was over 100 µM each time.

As to `COC(=O)C1=Nc2c(C)nn(-c3ccccc3)c2N=C(c2ccccc2)C1`, the TGI in [1], in [2], in assay [10], in [3], in assay [4] and in [5] was over 10 µM each time. In addition, the TGI in [6], in [8] and in [9] was over 10 µM each time.

In the case of `O=C1CSC2=NC3=C(COC/C3=C\c3ccc(Br)cc3)C(c3ccc(Br)cc3)N12` (stereo not given), the TGI in assay [1] is over 100 µM; in assay [2], over 100 µM; in assay [10], over 100 µM; in [3], over 100 µM; in [4], over 100 µM; in [5] it was 36.9 µM. In addition, the TGI is over 100 µM in assay [6], 61.9 µM in assay [7] and over 100 µM in assay [9].
